In brackets after ≈: the same amount, converted by molar mass.
Columns and labels:
[1] = tested on: C. albicans (CAN14); assay: MIC, broth microdilution (CLSI M27-A3), reference isolate; details: Candida albicans
[2] = tested on: Candida parapsilosis isolates; assay: MIC, broth microdilution, clinical isolates
[3] = tested on: C. tropicalis (ATCC13803); assay: MIC, broth microdilution (CLSI M27-A3), reference isolate; details: Candida tropicalis
[4] = tested on: C. albicans (DAY-185); assay: as above; details: Candida albicans, 48 h
[5] = tested on: Candida albicans clinical isolates; assay: MIC, broth microdilution, clinical isolates
[6] = tested on: Candida glabrata clinical isolates; assay: MIC, broth microdilution, clinical isolates
[7] = tested on: C. krusei (ATCC6258); assay: MIC, broth microdilution (CLSI M27-A3), reference isolate; details: Pichia kudriavzevii
[8] = tested on: C. glabrata (ATCC90030); assay: as above; details: Nakaseomyces glabratus
[9] = tested on: Cryptococcus neoformans clinical isolates; assay: MIC, broth microdilution, clinical isolates
[10] = tested on: C. neoformans (H99); assay: MIC, broth microdilution (CLSI M27-A3), reference isolate; details: Cryptococcus neoformans
[11] = tested on: C. albicans CAN14; assay: Murine model of systemic candidiasis; format: in vivo, C57BL/6 mice; details: 10 mg/kg intraperitoneally every 12 h for 5 days
Description: Female mice were used in the oral and systemic candidiasis model.
The murine model of systemic candidiasis was established according to the protocol previously described by [16], with modifications. […] Treatments to mice, performed intraperitoneally, were started 3 h after infection and persisted every 12 h for 5 days. […] All mice were sacrificed by cervical dislocation after 5 days and the kidneys were removed, observed macroscopically for lesions and colonies, weighed, measured and homogenized in PBS. The homogenates were serially diluted and plated on Sabouraud medium plates. Plates were incubated at 30 °C for 48 h and the fungal load was expressed as the ratio of CFU/g of kidney.
A p value ≤ 0.05 was considered significant. Statistical analysis of results of murine tests used Newman–Keuls Multiple and the Student’s t-test using GraphPad Prism, a p-value ≤ 0.05 was considered significant.

[12] = tested on: C. dublinensis (MYA-646); assay: MIC, broth microdilution (CLSI M27-A3), reference isolate; details: Candida dubliniensis
[13] = tested on: C. parapsilosis (ATCC22019); assay: as above; details: Lodderomyces parapsilosis
[14] = tested on: C. albicans CAN14; assay: Murine model of oral candidiasis; format: in vivo, C57BL/6 mice; details: 600 IU, into the mouth every 12 h for 4 days, immunosuppressed mice

## OC(Cn1cncn1)(Cn1cncn1)c1ccc(F)cc1F [Fluconazole]
[1]
  MIC: 0.125 µg/mL (≈ 0.408 µM)
[2]; C. parapsilosis isolates
  MIC90: 16 µg/mL (≈ 52.2 µM)
[2]; Lodderomyces parapsilosis
  MIC50: 0.25 µg/mL (≈ 0.816 µM)
  MIC90: 16 µg/mL (≈ 52.2 µM)
[2]; Lodderomyces parapsilosis, C. parapsilosis isolate 6901
  MIC: 0.25 µg/mL (≈ 0.816 µM)
[2]; Lodderomyces parapsilosis, C. parapsilosis isolate 6917
  MIC: 0.25 µg/mL (≈ 0.816 µM)
[2]; Lodderomyces parapsilosis, C. parapsilosis isolate 6933
  MIC: 0.25 µg/mL (≈ 0.816 µM)
[2]; Lodderomyces parapsilosis, C. parapsilosis isolate 7449
  MIC: 16 µg/mL (≈ 52.2 µM)
[2]; Lodderomyces parapsilosis, C. parapsilosis isolate 7585
  MIC: 0.25 µg/mL (≈ 0.816 µM)
[2]; Lodderomyces parapsilosis, C. parapsilosis isolate 7652
  MIC: 4 µg/mL (≈ 13.1 µM)
[2]; Lodderomyces parapsilosis, C. parapsilosis isolate 7839
  MIC: 0.5 µg/mL (≈ 1.63 µM)
[2]; Lodderomyces parapsilosis, C. parapsilosis isolate 7970A
  MIC: 1 µg/mL (≈ 3.27 µM)
[2]; Lodderomyces parapsilosis, C. parapsilosis isolate 8044
  MIC: 0.25 µg/mL (≈ 0.816 µM)
[2]; Lodderomyces parapsilosis, C. parapsilosis isolate 8662
  MIC: 16 µg/mL (≈ 52.2 µM)
[3]
  MIC: > 64 µg/mL
[4]
  MIC: 0.5 µg/mL (≈ 1.63 µM)
[5]; Candida albicans
  MIC50: 1 µg/mL (≈ 3.27 µM)
  MIC90: 2 µg/mL (≈ 6.53 µM)
[5]; Candida albicans, C. albicans clinical isolate 1
  MIC: 1 µg/mL (≈ 3.27 µM)
[5]; Candida albicans, C. albicans clinical isolate 02A
  MIC: 4 µg/mL (≈ 13.1 µM)
[5]; Candida albicans, C. albicans clinical isolate 02B
  MIC: 2 µg/mL (≈ 6.53 µM)
[5]; Candida albicans, C. albicans clinical isolate 6
  MIC: 1 µg/mL (≈ 3.27 µM)
[5]; Candida albicans, C. albicans clinical isolate 7
  MIC: 1 µg/mL (≈ 3.27 µM)
[5]; Candida albicans, C. albicans clinical isolate 9
  MIC: 0.5 µg/mL (≈ 1.63 µM)
[5]; Candida albicans, C. albicans clinical isolate 10
  MIC: 0.5 µg/mL (≈ 1.63 µM)
[5]; Candida albicans, C. albicans clinical isolate 11
  MIC: 1 µg/mL (≈ 3.27 µM)
[5]; Candida albicans, C. albicans clinical isolate 13
  MIC: 1 µg/mL (≈ 3.27 µM)
[5]; nine C. albicans clinical isolates
  MIC90: 2.0 µg/mL (≈ 6.53 µM)
[6]; Nakaseomyces glabratus
  MIC50: 2 µg/mL (≈ 6.53 µM)
  MIC90: 2 µg/mL (≈ 6.53 µM)
[6]; Nakaseomyces glabratus, C. glabrata clinical isolate 6922
  MIC: 2 µg/mL (≈ 6.53 µM)
[6]; Nakaseomyces glabratus, C. glabrata clinical isolate 6927
  MIC: 2 µg/mL (≈ 6.53 µM)
[6]; Nakaseomyces glabratus, C. glabrata clinical isolate 6931
  MIC: 0.5 µg/mL (≈ 1.63 µM)
[6]; Nakaseomyces glabratus, C. glabrata clinical isolate 6932
  MIC: 0.5 µg/mL (≈ 1.63 µM)
[6]; Nakaseomyces glabratus, C. glabrata clinical isolate 6943
  MIC: 8 µg/mL (≈ 26.1 µM)
[6]; Nakaseomyces glabratus, C. glabrata clinical isolate 7110
  MIC: 1 µg/mL (≈ 3.27 µM)
[6]; Nakaseomyces glabratus, C. glabrata clinical isolate 7221
  MIC: 0.5 µg/mL (≈ 1.63 µM)
[6]; Nakaseomyces glabratus, C. glabrata clinical isolate 7255
  MIC: 2 µg/mL (≈ 6.53 µM)
[6]; Nakaseomyces glabratus, C. glabrata clinical isolate 7815
  MIC: 2 µg/mL (≈ 6.53 µM)
[6]; Nakaseomyces glabratus, C. glabrata clinical isolate 7871
  MIC: 2 µg/mL (≈ 6.53 µM)
[6]; all C. glabrata clinical isolates
  susceptibility of isolates according to CLSI M27-S4: sensitive
[7]
  MIC: 64 µg/mL (≈ 209 µM)
[8]
  MIC: 4 µg/mL (≈ 13.1 µM)
[9]
  MIC50: 8 µg/mL (≈ 26.1 µM)
  MIC90: 16 µg/mL (≈ 52.2 µM)
[9]; C. neoformans clinical isolate 27JF
  MIC: 8 µg/mL (≈ 26.1 µM)
[9]; C. neoformans clinical isolate 28JF
  MIC: 8 µg/mL (≈ 26.1 µM)
[9]; C. neoformans clinical isolate 93
  MIC: 4 µg/mL (≈ 13.1 µM)
[9]; C. neoformans clinical isolate 94
  MIC: 8 µg/mL (≈ 26.1 µM)
[9]; C. neoformans clinical isolate 646B
  MIC: 1 µg/mL (≈ 3.27 µM)
[9]; C. neoformans clinical isolate 975
  MIC: 2 µg/mL (≈ 6.53 µM)
[9]; C. neoformans clinical isolate 9220
  MIC: 2 µg/mL (≈ 6.53 µM)
[9]; C. neoformans clinical isolate 9273
  MIC: 2 µg/mL (≈ 6.53 µM)
[9]; C. neoformans clinical isolate 10131
  MIC: 8 µg/mL (≈ 26.1 µM)
[9]; C. neoformans clinical isolate 10211
  MIC: 4 µg/mL (≈ 13.1 µM)
[9]; C. neoformans clinical isolate 10264
  MIC: 4 µg/mL (≈ 13.1 µM)
[9]; C. neoformans clinical isolate 10335
  MIC: 8 µg/mL (≈ 26.1 µM)
[9]; C. neoformans clinical isolate 10379
  MIC: 8 µg/mL (≈ 26.1 µM)
[9]; C. neoformans clinical isolate 41292
  MIC: 8 µg/mL (≈ 26.1 µM)
[9]; C. neoformans clinical isolate 41295
  MIC: 32 µg/mL (≈ 104 µM)
[9]; C. neoformans clinical isolate 41296
  MIC: 16 µg/mL (≈ 52.2 µM)
[9]; C. neoformans clinical isolate 41297
  MIC: 8 µg/mL (≈ 26.1 µM)
[9]; C. neoformans clinical isolate 41298
  MIC: 8 µg/mL (≈ 26.1 µM)
[9]; C. neoformans clinical isolate 41299
  MIC: 4 µg/mL (≈ 13.1 µM)
[9]; C. neoformans clinical isolate 90896
  MIC: 32 µg/mL (≈ 104 µM)
[9]; C. neoformans clinical isolate 92868
  MIC: 8 µg/mL (≈ 26.1 µM)
[9]; C. neoformans clinical isolate BF113
  MIC: 16 µg/mL (≈ 52.2 µM)
[9]; C. neoformans clinical isolate BF114
  MIC: 64 µg/mL (≈ 209 µM)
[9]; C. neoformans clinical isolate C31
  MIC: 4 µg/mL (≈ 13.1 µM)
[9]; C. neoformans clinical isolate F10
  MIC: 4 µg/mL (≈ 13.1 µM)
[9]; C. neoformans clinical isolate RN01
  MIC: 4 µg/mL (≈ 13.1 µM)
[9]; C. neoformans clinical isolate WP
  MIC: 8 µg/mL (≈ 26.1 µM)
[10]
  MIC: 2 µg/mL (≈ 6.53 µM)
[11]
  fungal load in the kidneys (CFU/g) versus untreated control: significant reduction
[12]
  MIC: 1 µg/mL (≈ 3.27 µM)
[13]
  MIC: 8 µg/mL (≈ 26.1 µM)

## C[C@@H]1[C@H](O)[C@@H](C)/C=C/C=C/CC/C=C/C=C/C=C/C=C/C(O[C@H]2O[C@H](C)[C@@H](O)[C@H](N)[C@@H]2O)CC2O[C@](O)(CC(O)C(O)CCC(O)CC(O)CC(O)CC(=O)O[C@H]1C)CC(O)C2C(=O)O (some centres unmarked) [nystatin]
[14]
  fungal load on the tongue (CFU) versus untreated control: lower

From paper PMC6308944, “Anti-Candida albicans Activity of Thiazolylhydrazone Derivatives in Invertebrate and Murine Models” (Journal of Fungi, 2018)
